Measured values reported in the supplement of paper PMC10307832.

Tests used:
Experiment in all cases: relative viability (nuclei count vs DMSO), 5 days (fraction); higher = more cells survive
[1] = tested on: NCI-H3122
Procedure, shortened: (§1)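 Relative viability divides the nuclei count in treated wells by that in vehicle wells. Lung cancer cell lines were seeded in 1536-well plates, dosed by pin tool the next day, and fixed and stained after 5 days in one step with final 0.05% Triton X-100, 1% formaldehyde and 1 ug/ml Hoechst. Dosing was a single drug or a fixed anchor-drug dose plus five library-drug doses (not always all listed) in √10 steps, and values are medians of duplicate plates imaged at 4×.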

[2] = tested on: NCI-H2170
Procedure, shortened: as §1

[3] = tested on: NCI-H1915
Procedure, shortened: as §1

[4] = tested on: NCI-H2023
Procedure, shortened: as §1

[5] = tested on: NCI-H1755
Procedure, shortened: as §1

[6] = tested on: EMC-BAC-2
Procedure, shortened: as §1

[7] = tested on: NCI-H727
Procedure, shortened: as §1

[8] = tested on: NCI-H358
Procedure, shortened: as §1

[9] = tested on: NCI-H650
Procedure, shortened: as §1

[10] = tested on: HCC-15
Procedure, shortened: as §1

[11] = tested on: SW 1573
Procedure, shortened: as §1

[12] = tested on: NCI-H2126
Procedure, shortened: as §1

[13] = tested on: NCI-H1395
Procedure, shortened: as §1

[14] = tested on: NCI-H1563
Procedure, shortened: as §1

[15] = tested on: NCI-H1437
Procedure, shortened: as §1

[16] = tested on: BEN
Procedure, shortened: as §1

[17] = tested on: LU99A
Procedure, shortened: as §1

[18] = tested on: NCI-H1734
Procedure, shortened: as §1

[19] = tested on: SW 900
Procedure, shortened: as §1

[20] = tested on: HOP-62
Procedure, shortened: as §1

[21] = tested on: LC-2-ad
Procedure, shortened: as §1

[22] = tested on: HCC-44
Procedure, shortened: as §1

## CN1CCN(CCOc2cc(OC3CCOCC3)c3c(Nc4c(Cl)ccc5c4OCO5)ncnc3c2)CC1 [Saracatinib] + CCNC(=O)c1noc(-c2cc(C(C)C)c(O)cc2O)c1-c1ccc(CN2CCOCC2)cc1 [Luminespib] (partner 0.01 µM)
[1]; first compound 0.02 µM
  relative viability: 0.0855
[1]; first compound 0.2 µM
  relative viability: 0.103
[1]; first compound 0.6325 µM
  relative viability: 0.0549
[1]; first compound 2 µM
  relative viability: 0.076
[2]; first compound 0.02 µM
  relative viability: 0.658
[2]; first compound 0.2 µM
  relative viability: 0.596
[2]; first compound 0.6325 µM
  relative viability: 0.477
[2]; first compound 2 µM
  relative viability: 0.337
[3]; first compound 0.02 µM
  relative viability: 0.742
[3]; first compound 0.2 µM
  relative viability: 0.703
[3]; first compound 0.6325 µM
  relative viability: 0.872
[3]; first compound 2 µM
  relative viability: 0.654
[4]; first compound 0.02 µM
  relative viability: 0.773
[4]; first compound 0.6325 µM
  relative viability: 0.735
[4]; first compound 2 µM
  relative viability: 0.471
[5]; first compound 0.02 µM
  relative viability: 0.456
[5]; first compound 0.2 µM
  relative viability: 0.329
[5]; first compound 0.6325 µM
  relative viability: 0.447
[5]; first compound 2 µM
  relative viability: 0.414
[6]; first compound 0.02 µM
  relative viability: 1.21
[6]; first compound 0.2 µM
  relative viability: 0.894
[6]; first compound 0.6325 µM
  relative viability: 1.16
[6]; first compound 2 µM
  relative viability: 0.978
[7]; first compound 0.02 µM
  relative viability: 0.242
[7]; first compound 0.2 µM
  relative viability: 0.316
[7]; first compound 0.6325 µM
  relative viability: 0.266
[7]; first compound 2 µM
  relative viability: 0.239
[8]; first compound 0.02 µM
  relative viability: 0.174
[8]; first compound 0.2 µM
  relative viability: 0.208
[8]; first compound 0.6325 µM
  relative viability: 0.309
[8]; first compound 2 µM
  relative viability: 0.318
[9]; first compound 0.02 µM
  relative viability: 0.685
[9]; first compound 0.2 µM
  relative viability: 0.613
[9]; first compound 0.6325 µM
  relative viability: 0.87
[9]; first compound 2 µM
  relative viability: 0.68
[10]; first compound 0.02 µM
  relative viability: 0.343
[10]; first compound 0.2 µM
  relative viability: 0.32
[10]; first compound 0.6325 µM
  relative viability: 0.331
[10]; first compound 2 µM
  relative viability: 0.176
[11]; first compound 0.02 µM
  relative viability: 0.195
[11]; first compound 0.2 µM
  relative viability: 0.217
[11]; first compound 0.6325 µM
  relative viability: 0.374
[11]; first compound 2 µM
  relative viability: 0.15
[12]; first compound 0.02 µM
  relative viability: 0.878
[12]; first compound 0.2 µM
  relative viability: 0.895
[12]; first compound 0.6325 µM
  relative viability: 0.852
[12]; first compound 2 µM
  relative viability: 0.655
[13]; first compound 0.02 µM
  relative viability: 0.621
[13]; first compound 0.2 µM
  relative viability: 0.634
[13]; first compound 0.6325 µM
  relative viability: 0.79
[13]; first compound 2 µM
  relative viability: 0.62
[14]; first compound 0.02 µM
  relative viability: 0.481
[14]; first compound 0.2 µM
  relative viability: 0.488
[14]; first compound 0.6325 µM
  relative viability: 0.537
[14]; first compound 2 µM
  relative viability: 0.525
[15]; first compound 0.02 µM
  relative viability: 1.13
[15]; first compound 0.2 µM
  relative viability: 1.13
[15]; first compound 0.6325 µM
  relative viability: 1.17
[15]; first compound 2 µM
  relative viability: 1.14
[16]; first compound 0.02 µM
  relative viability: 0.421
[16]; first compound 0.6325 µM
  relative viability: 0.418
[16]; first compound 2 µM
  relative viability: 0.401
[17]; first compound 0.02 µM
  relative viability: 0.214
[17]; first compound 0.2 µM
  relative viability: 0.203
[17]; first compound 0.6325 µM
  relative viability: 0.26
[17]; first compound 2 µM
  relative viability: 0.232
[18]; first compound 0.02 µM
  relative viability: 0.224
[18]; first compound 0.6325 µM
  relative viability: 0.213
[18]; first compound 2 µM
  relative viability: 0.181
[19]; first compound 0.02 µM
  relative viability: 0.187
[19]; first compound 0.2 µM
  relative viability: 0.152
[19]; first compound 0.6325 µM
  relative viability: 0.176
[19]; first compound 2 µM
  relative viability: 0.151
[20]; first compound 0.02 µM
  relative viability: 0.864
[20]; first compound 0.2 µM
  relative viability: 0.852
[20]; first compound 0.6325 µM
  relative viability: 1.04
[20]; first compound 2 µM
  relative viability: 1.02
[21]; first compound 0.02 µM
  relative viability: 0.985
[21]; first compound 0.2 µM
  relative viability: 0.912
[21]; first compound 0.6325 µM
  relative viability: 1.1
[21]; first compound 2 µM
  relative viability: 0.949
[22]; first compound 0.02 µM
  relative viability: 0.972
[22]; first compound 0.2 µM
  relative viability: 0.921
[22]; first compound 0.6325 µM
  relative viability: 1.32
[22]; first compound 2 µM
  relative viability: 0.952
